Results: ChEMBL document CHEMBL6096712, “Ligand Design with Accelerated Disulfide Formation with Serum Albumin to Extend Blood Retention” (ACS Med Chem Lett, 2025)

What was measured:
Type in all cases: ADME, organism-based
[1] = AUCt in C57BL/6N mouse at 0.171 mM, iv measured upto 24 hrs; details: in vivo
[2] = Terminal half life in C57BL/6N mouse at 0.171 mM, iv measured upto 24 hrs; details: in vivo, read-out: beta t1/2 (converted)
[3] = Primary phase half life in C57BL/6N mouse at 0.171 mM, iv measured upto 24 hrs; details: in vivo, read-out: alphat1/2 (converted)
[4] = Volume of distribution in C57BL/6N mouse at 0.171 mM, iv measured upto 24 hrs; details: in vivo
[5] = Clearance in C57BL/6N mouse at 0.171 mM, iv measured upto 24 hrs; details: in vivo

Row | AUC(0-t) at 24 h, 171 µM [1] | half-life at 171 µM [2] | half-life at 171 µM [3] | Vd at 171 µM [4] | clearance at 171 µM [5] | SMILES
1 | 146 µg·h/mL | 7.62 h | 1.51 h | 0.0284 L/kg | 0.00809 L/h/kg | CCCCCCCCCCCCCCCC(=O)NCCCCC(NC(=O)COCCOCCNC(=O)CCCCC[N+]1=C(/C=C/C2=CC(=C/C=C3/N(C)c4ccc(S(=O)(=O)O)cc4C3(C)C)/CCC2)C(C)(C)c2cc(S(=O)(=O)[O-])ccc21)C(=O)NCCOCCOCC(=O)NCCOCCOCC(=O)NC(CSSc1ccccn1)C(N)=O (centres undefined)
2 | 50.5 µg·h/mL | 4.73 h | 1.26 h | 0.0413 L/kg | 0.0184 L/h/kg | CN1/C(=C/C=C2C=C(/C=C/C3=[N+](CCCCCC(=O)NCCOCCOCC(=O)NCCOCCOCC(=O)NCCOCCOCC(=O)NC(CSSc4ccccn4)C(N)=O)c4ccc(S(=O)(=O)[O-])cc4C3(C)C)CCC/2)C(C)(C)c2cc(S(=O)(=O)O)ccc21 (centres undefined)
3 | 30.9 µg·h/mL | 0.83 h | – | 0.0427 L/kg | 0.0338 L/h/kg | CCCCCCCCCCCCCCCC(=O)NCCCCC(NC(=O)COCCOCCNC(=O)CCCCC[N+]1=C(/C=C/C2=CC(=C/C=C3/N(C)c4ccc(S(=O)(=O)O)cc4C3(C)C)/CCC2)C(C)(C)c2cc(S(=O)(=O)[O-])ccc21)C(=O)NCCOCCOCC(=O)NCCOCCOCC(N)=O (centres undefined)
